According to patent US11000033B2, “Ketone or oxime compound, and herbicide” (NISSAN CHEMICAL CORPORATION, priority 2014, dated 2021):

Experiments:
Assay type in all cases: in vivo
Scirpus juncoides = experiment: Test Example 1: herbicidal activity, application before weed generation in submerged conditions (symbol B); conditions: application herbicide amount 320 g/ha
In short: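 Mixed weed seeds sown in alluvial soil under 4 cm of water, with rice seedlings at the 2.5-leaf stage added. Same-day treatment: emulsion diluted to a set herbicide amount onto the water. Three weeks at 25–30 °C, then graded on a six-step scale.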

Alopecurus myosuroides [1] = experiment: Test Example 5: herbicidal effect by foliage application, plastic box (symbol J); conditions: 320 g/ha, 3 weeks after application
In short: (§1)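 Post-emergence spray; diluvial soil (sterilized), ~1.5 cm seed cover; greenhouse 25–30° C; 14-day-old plants; water-diluted emulsion at predetermined dose; visual score at 3 wk post-treatment.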

Digitaria ciliaris = experiment: Test Example 5: herbicidal effect by foliage application, plastic box (symbol F); conditions: 320 g/ha, 3 weeks after application
In short: as §1

rice = experiment: Test Example 4: effect on crop by soil treatment (symbol b); conditions: application herbicide amount 320 g/ha
In short: (§2)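 Diluvial soil (sterilized) in boxes; seeds placed spot-wise alongside weed species; ~1.5 cm covering soil. Greenhouse, 25–30° C.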

Alopecurus myosuroides [2] = experiment: Test Example 4: herbicidal effect by soil treatment (symbol J); conditions: application herbicide amount 320 g/ha
In short: (§3)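 Seeds were sown in sterilized diluvial soil, covered with about 1.5 cm of soil, and the soil surface was sprayed with a water-diluted emulsion of the compound at a predetermined rate. Plants grew in a greenhouse at 25° C. to 30° C.; effects were scored visually 3 weeks after application.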

corn = experiment: Test Example 5: effect on crop by foliage application, plastic box (symbol c); conditions: 320 g/ha, 3 weeks after application
In short: (§4)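 Crop and weed seeds sown in spots in sterilized diluvial soil in plastic boxes and covered with about 1.5 cm soil. Plants raised in a greenhouse at 25° C. to 30° C. for foliar application.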

Monochoria vaginalis = experiment: Test Example 2: herbicidal activity, application during weed generation in submerged conditions (symbol C); conditions: Table 23; application herbicide amount 320 g/ha; grade 0-5 by criteria of Test Example 1
In short: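 Seeds sown in flooded alluvial soil (4 cm water) were grown in a 25-30° C greenhouse. At the one- to two-leaf stage, diluted emulsion of compound was applied to the water surface at a predetermined rate. Effect was scored 3 weeks later.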

rapeseed = experiment: Test Example 5: effect on crop by foliage application, plastic box (symbol g); conditions: 320 g/ha, 3 weeks after application
In short: as §4

wheat = experiment: Test Example 4: effect on crop by soil treatment (symbol e); conditions: application herbicide amount 320 g/ha
In short: as §2

soybean = experiment: Test Example 4: effect on crop by soil treatment (symbol d); conditions: application herbicide amount 320 g/ha
In short: as §2

transplanted rice plant = experiment: Test Example 1: effect on crop, application before weed generation in submerged conditions (symbol a); conditions: application herbicide amount 320 g/ha
In short: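 Rice at 2.5 leaf stage transplanted into submerged soil (4 cm depth) sown with three weed species; herbicide applied before weed emergence.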

Lolium multiflorum Lam. = experiment: Test Example 4: herbicidal effect by soil treatment (symbol K); conditions: application herbicide amount 320 g/ha
In short: as §3

[3] = tested on: Echinochloa crus-galli var. crus-galli; experiment: Test Example 5: herbicidal effect by foliage application, plastic box (symbol H); conditions: 320 g/ha, 3 weeks after application
In short: as §1

| Structure (SMILES) | Herbicidal effect grade, B: Scirpus juncoides (Scirpus juncoides) | J: Alopecurus myosuroides, herbicidal effect grade (Alopecurus myosuroides [1]) | F: Digitaria ciliaris, herbicidal effect grade (Digitaria ciliaris) | b (directly sowed rice plant) effect on crop grade (rice) | J (Alopecurus myosuroides) herbicidal effect grade (Alopecurus myosuroides [2]) | c: corn, effect on crop grade (corn) | Herbicidal effect grade, C: Monochoria vaginalis (Monochoria vaginalis) | g: rapeseed, effect on crop grade (rapeseed) | e (wheat) effect on crop grade (wheat) | d (soybean) effect on crop grade (soybean) | Effect grade on crop, a: transplanted rice plant (transplanted rice plant) | K (Lolium multiflorum Lam.) herbicidal effect grade (Lolium multiflorum Lam.) | H: Echinochloa crus-galli var. crus-galli, herbicidal effect grade [3] |
| --- | --- | --- | --- | --- | --- | --- | --- | --- | --- | --- | --- | --- | --- |
| CON=C(C)CC1CC(OC(=O)C(C)(C)Oc2ccccc2Cl)=C(c2c(C)cc(C)cc2C)C1=O (centres unmarked) [1-064] | 5 (Herbicidal ratio of 90% or more (almost completely withered)) | 5 (Herbicidal ratio of 90% or more (almost completely withered)) | 5 (Herbicidal ratio of 90% or more (almost completely withered)) | 5 (Herbicidal ratio of 90% or more (almost completely withered)) | 5 (Herbicidal ratio of 90% or more (almost completely withered)) | 5 (Herbicidal ratio of 90% or more (almost completely withered)) | 1 (Herbicidal ratio of 5% or higher and lower than 20%) | 4 (Herbicidal ratio of 70% or higher and lower than 90%) | 3 (Herbicidal ratio of 40% or higher and lower than 70%) | 2 (Herbicidal ratio of 20% or higher and lower than 40%) | 4 (Herbicidal ratio of 70% or higher and lower than 90%) | 5 (Herbicidal ratio of 90% or more (almost completely withered)) | 5 (Herbicidal ratio of 90% or more (almost completely withered)) |
| CON=C(C)CC1CC(OC(=O)C(C)(C)F)=C(c2c(C)cc(C)cc2C)C1=O (centres unmarked) [1-039] | 5 (Herbicidal ratio of 90% or more (almost completely withered)) | 5 (Herbicidal ratio of 90% or more (almost completely withered)) | 5 (Herbicidal ratio of 90% or more (almost completely withered)) | 5 (Herbicidal ratio of 90% or more (almost completely withered)) | 5 (Herbicidal ratio of 90% or more (almost completely withered)) | 4 (Herbicidal ratio of 70% or higher and lower than 90%) | 3 (Herbicidal ratio of 40% or higher and lower than 70%) | 4 (Herbicidal ratio of 70% or higher and lower than 90%) | 4 (Herbicidal ratio of 70% or higher and lower than 90%) | 0 (Herbicidal ratio of 5% or lower (almost no effect)) | 5 (Herbicidal ratio of 90% or more (almost completely withered)) | 5 (Herbicidal ratio of 90% or more (almost completely withered)) | 5 (Herbicidal ratio of 90% or more (almost completely withered)) |
| CON=C(C)CC1CC(OC(=O)C(C)(C)Oc2ccc(Cl)cc2)=C(c2c(C)cc(C)cc2C)C1=O (centres unmarked) [1-051] | 5 (Herbicidal ratio of 90% or more (almost completely withered)) | 5 (Herbicidal ratio of 90% or more (almost completely withered)) | 5 (Herbicidal ratio of 90% or more (almost completely withered)) | 5 (Herbicidal ratio of 90% or more (almost completely withered)) | 5 (Herbicidal ratio of 90% or more (almost completely withered)) | 5 (Herbicidal ratio of 90% or more (almost completely withered)) | 3 (Herbicidal ratio of 40% or higher and lower than 70%) | 4 (Herbicidal ratio of 70% or higher and lower than 90%) | 2 (Herbicidal ratio of 20% or higher and lower than 40%) | 3 (Herbicidal ratio of 40% or higher and lower than 70%) | 5 (Herbicidal ratio of 90% or more (almost completely withered)) | 5 (Herbicidal ratio of 90% or more (almost completely withered)) | 5 (Herbicidal ratio of 90% or more (almost completely withered)) |
| CON=C(CC1CC(O)=C(c2c(C)cc(C)cc2C)C1=O)C(C)(C)C (centres unmarked) [1-059] | 3 (Herbicidal ratio of 40% or higher and lower than 70%) | 4 (Herbicidal ratio of 70% or higher and lower than 90%) | 1 (Herbicidal ratio of 5% or higher and lower than 20%) | 4 (Herbicidal ratio of 70% or higher and lower than 90%) | 3 (Herbicidal ratio of 40% or higher and lower than 70%) | 4 (Herbicidal ratio of 70% or higher and lower than 90%) | 0 (Herbicidal ratio of 5% or lower (almost no effect)) | 3 (Herbicidal ratio of 40% or higher and lower than 70%) | 0 (Herbicidal ratio of 5% or lower (almost no effect)) | 0 (Herbicidal ratio of 5% or lower (almost no effect)) | 4 (Herbicidal ratio of 70% or higher and lower than 90%) | 5 (Herbicidal ratio of 90% or more (almost completely withered)) | 4 (Herbicidal ratio of 70% or higher and lower than 90%) |
| CC(CC1CC(O)=C(c2c(C)cc(C)cc2C)C1=O)=NOCC[Si](C)(C)C (centres unmarked) [1-055] | 3 (Herbicidal ratio of 40% or higher and lower than 70%) | 4 (Herbicidal ratio of 70% or higher and lower than 90%) | 3 (Herbicidal ratio of 40% or higher and lower than 70%) | 5 (Herbicidal ratio of 90% or more (almost completely withered)) | 1 (Herbicidal ratio of 5% or higher and lower than 20%) | 3 (Herbicidal ratio of 40% or higher and lower than 70%) | 0 (Herbicidal ratio of 5% or lower (almost no effect)) | 3 (Herbicidal ratio of 40% or higher and lower than 70%) | 0 (Herbicidal ratio of 5% or lower (almost no effect)) | 0 (Herbicidal ratio of 5% or lower (almost no effect)) | 5 (Herbicidal ratio of 90% or more (almost completely withered)) | 5 (Herbicidal ratio of 90% or more (almost completely withered)) | 4 (Herbicidal ratio of 70% or higher and lower than 90%) |
